Test results from paper PMC12516379, “Rotamer-Controlled Self-Immolative Linkers Enable Tunable Release of Neurosteroid Oxime Prodrugs” (ACS Medicinal Chemistry Letters, 2025).

Legend:
[1] = Aqueous solubility by visual inspection in acetate buffer (pH 5); details: sodium acetate buffer, pH 5, aqueous buffer, thermodynamic from solid
Description: For the solubility assessment, acetate buffer (pH 5) was selected as the media of choice to ensure prodrug stability during analysis.
High aqueous solubility was determined by visual inspection of 5 mg solid material in 0.5 mL
sodium acetate buffer solution. This media was selected to ensure stability of prodrugs during
dissolution in 50 mg/mL aqueous media.

[2] = Stability in PBS at room temperature via HPLC (UV); assay type: physicochemical; details: phosphate-buffered saline (DPBS)
In short: (§1)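 Progesterone prodrugs dissolved at 1 mg/mL in PBS (pH 7.03) or 10 mM acetate buffer (pH 5.0), kept at RT and reinjected over time, HPLC-UV AUC at 254 nm. Percent parent remaining; k from ln(%remaining) vs time, pseudo-first-order t1/2 = 0.693/k; duplicates averaged.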

[3] = Stability in acetate buffer pH 5.0 at room temperature via HPLC (UV); assay type: physicochemical
In short: as §1

[4] = Plasma stability assay via LC-MS/MS, mouse plasma; assay type: in vitro ADME; details: read-out: t1/2 in mouse plasma (Table S20) (converted)
Description: (§2) Building on our observation that rotamer control in the steric series can be modulated by enzymatic stabilization or activation, we next evaluated whether this effect was species dependent. To investigate this, we performed comparative stability studies by incubating select prodrugs (20a, 20b, 20l and 20t; Figure ) in mouse and rat plasma – two of the most commonly used preclinical species in drug development. This approach allowed us to assess the potential influence of species-specific enzymes on rotamer equilibria and, by extension, prodrug activation rates. The self-immolation profiles for the sterically tuned linker series (20a–b) reveal discernible, species-dependent differences prodrug stability. […] While the precise biochemical drivers remain unclear, this observation warrants further investigation beyond the scope of this work.
(§3) 1.2 Stability in Plasma and PBS via LCMS
(§4) Procaine (positive control) was purchased from Sigma-Aldrich. HPLC grade MeCN, MeOH, H2O, and FA were purchased from Fischer Scientific. Human plasma (cat. No. […]- […]
(§5) 0102242) were obtained from BIOIVT. DPBS 1X (no calcium, no magnesium, pH = 7.03) was purchased from Thermo Fischer Scientific. Stock solutions were prepared in 100% DMSO, and suitable dilutions of target analytes were prepared in 0.1% FA /MeCN for method development.
(§6) For PBS assay Gibco® Dulbecco’s phosphate-buffered saline (DPBS 1X, no calcium, no magnesium, pH = 7.03) was utilized. All experiments were performed in duplicate and results are presented as the average of two experimental replicates.
(§7) Procedure for Plasma Stability Assay
(§8) Test compounds and positive control (i.e. procaine) were dissolved in DMSO to make a 10 mM stock solution and subsequently diluted to 500 μM in 50% MeCN and PBS. This intermediate stock solution was prepared and added immediately prior to the start of each test compound experiment. Plasma was thawed at ambient temperature and aliquoted (663.0 μL) into 1.5 mL Eppendorf tubes. Plasma was incubated at 37 °C for 10 minutes in an incubator shaker at 150 rpm, and the reactions were initiated by addition of the test compound or positive control (4.0 µL, 3 μM). The spiked plasma samples were incubated at 37 °C. For designated time points, 75 µL aliquots were removed from the incubation mixture and immediately quenched in 150 µL of MeCN/0.1%FA with internal standard (ISTD, 2 µM d 5-7-ethoxy coumarin). […] The supernatant was transferred to an LC-MS vial and analyzed by LC/MS-MS. […]
(§9) LC–MS/MS analysis was performed using an Agilent 1260 Infinity II HPLC, coupled with an Agilent G6460 triple quadrupole mass spectrometer (Agilent Technologies, USA). All the data were acquired employing Agilent 6460 Quantitative Analysis data processing software. […]

[5] = Plasma stability assay via LC-MS/MS, rat plasma; assay type: in vitro ADME; details: read-out: t1/2 in rat plasma (Table S19) (converted)
Description: as §2, §3, §4, §5, §6, §7, §8, §9

[6] = Plasma stability assay at 37 °C via LC-MS/MS, human plasma; assay type: in vitro ADME; details: for half-life at 3 µM: human, plasma;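 as to all read-outs here: prodrugs at 3 µM incubated in human plasma at 37 °C, intact prodrug quantified by LC-MS/MS over time, values are means of duplicate runs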
Description: To address this, prodrug stability was further evaluated in human plasma at 37 °C using liquid chromatography–tandem mass spectrometry (LC-MS/MS). For direct comparison, a parallel screen was conducted in PBS under identical conditions (Table ). To prevent premature degradation prior to LC-MS/MS analysis, acetonitrile containing formic acid was used as a quenching solution to acidify and stabilize the prodrugs in vials. […] This limitation in detection, along with the need for a more uniform and broadly applicable assessment across all compounds, prompted us to monitor the formation of the parent oxime as an alternative readout.
Stability experiments in human plasma and PBS were performed via liquid chromatography-tandem mass spectrometry (LC-MS/MS) to determine and compare rate of cleavage of progesterone prodrugs as well as selected allopregnanolone prodrugs (3 µM) when incubated at 37 °C. All experiments were performed in duplicate and results are presented as the average of two experimental replicates.

## CNCCN(C)C(=O)O/N=C(\C)[C@H]1CC[C@H]2[C@@H]3CCC4=CC(=O)CC[C@]4(C)[C@H]3CC[C@]12C [20a]
[1]
  solubility: > 10000 µg/mL
[2]; pH 7.03, DPBS pH 7.03, RT, 1 mg/mL, HPLC 254 nm, read-out: t1/2 in PBS buffer at RT (Tables S1-S4) (converted)
  half-life at 1 mg/mL: 46.9 ± 0.77 h
[2]; pH 7.03, PBS, rt, HPLC (UV), read-out: Half-life (t½) PBS rt (converted)
  half-life at 1 mg/mL: 46.9 h
[2]; pH 7.03, PBS, rt, read-out: t½: PBS, rt (Table S23) (converted)
  half-life at 1 mg/mL: 46.9 h
[3]; pH 5, acetate buffer pH 5.0, RT, 1 mg/mL, HPLC 254 nm, read-out: t1/2 in acetate buffer at RT (Tables S5-S8) (converted)
  half-life at 1 mg/mL: > 168 h
[3]; pH 5, acetate buffer pH 5.0, rt, HPLC (UV), read-out: Half-life (t½) pH 5.0 rt (converted)
  half-life at 1 mg/mL: > 168 h
[3]; pH 5, acetate buffer pH 5.0, rt, read-out: t½: pH 5.0, rt (Table S23) (converted)
  half-life at 1 mg/mL: > 168 h
[4]
  half-life at 3 µM: 4.7 h
[5]
  half-life at 3 µM: 3.88 h
[6]; 3 µM, LC-MS/MS
  t1/2 in human plasma at 37 °C (Tables S10-S13, S18): 2.45 h
[6]; 2 h
  Plasma, 37 °C %rem. at 2h (Table S23): 73%
[6]; 3 µM, LC-MS/MS, read-out: t1/2 in human plasma at 37 °C (Tables S10-S13, S18) (converted)
  half-life at 3 µM: 3.14 h
[6]; LC-MS/MS, read-out: Half-life (t½) Plasma 37°C (converted)
  half-life at 3 µM: 2.49 h
[6]; read-out: Plasma, 37 °C t½ (Table S23) (converted)
  half-life at 3 µM: 2.45 h
